Measured values reported in US8415469B2, “Compounds and methods for kinase modulation, and indications therefor” (Plexxikon Inc., priority 2005, dated 2013).

How the values were obtained:
Assay type in all cases: biochemical
B-Raf V600E = biological target: T1, B-Raf V600E (Homo sapiens, UniProt P15056, V600E); assay: AlphaScreen kinase assay, B-Raf V600E; conditions: read-out: IC50, activity toward kinase B-Raf V600E
T1 construct: P4254. pFastBacBD-CDC37 BRAF D437-K722-X, V600E; His6 with pFastBac HT leader (TEV site) (N); made in house; host or cells: Sf9 (baculovirus; chaperone CDC37 co-expressed)
T1 sequence (P15056 with tags, fused parts or gaps V600E): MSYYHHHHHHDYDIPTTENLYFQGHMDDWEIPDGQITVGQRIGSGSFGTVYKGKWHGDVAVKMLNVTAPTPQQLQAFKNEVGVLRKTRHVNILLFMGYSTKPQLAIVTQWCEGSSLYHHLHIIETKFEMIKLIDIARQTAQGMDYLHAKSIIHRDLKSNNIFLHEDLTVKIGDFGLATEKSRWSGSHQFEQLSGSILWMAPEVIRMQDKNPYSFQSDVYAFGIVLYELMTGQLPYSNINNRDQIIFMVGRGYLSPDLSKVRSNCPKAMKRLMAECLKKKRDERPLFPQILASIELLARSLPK

Fms = biological target: T2, Fms (Homo sapiens, UniProt P07333); assay: AlphaScreen kinase assay, Fms; conditions: read-out: IC50, activity toward kinase Fms
T2 construct: purchased Upstate Biotechnology
T2 sequence (P07333 20-972): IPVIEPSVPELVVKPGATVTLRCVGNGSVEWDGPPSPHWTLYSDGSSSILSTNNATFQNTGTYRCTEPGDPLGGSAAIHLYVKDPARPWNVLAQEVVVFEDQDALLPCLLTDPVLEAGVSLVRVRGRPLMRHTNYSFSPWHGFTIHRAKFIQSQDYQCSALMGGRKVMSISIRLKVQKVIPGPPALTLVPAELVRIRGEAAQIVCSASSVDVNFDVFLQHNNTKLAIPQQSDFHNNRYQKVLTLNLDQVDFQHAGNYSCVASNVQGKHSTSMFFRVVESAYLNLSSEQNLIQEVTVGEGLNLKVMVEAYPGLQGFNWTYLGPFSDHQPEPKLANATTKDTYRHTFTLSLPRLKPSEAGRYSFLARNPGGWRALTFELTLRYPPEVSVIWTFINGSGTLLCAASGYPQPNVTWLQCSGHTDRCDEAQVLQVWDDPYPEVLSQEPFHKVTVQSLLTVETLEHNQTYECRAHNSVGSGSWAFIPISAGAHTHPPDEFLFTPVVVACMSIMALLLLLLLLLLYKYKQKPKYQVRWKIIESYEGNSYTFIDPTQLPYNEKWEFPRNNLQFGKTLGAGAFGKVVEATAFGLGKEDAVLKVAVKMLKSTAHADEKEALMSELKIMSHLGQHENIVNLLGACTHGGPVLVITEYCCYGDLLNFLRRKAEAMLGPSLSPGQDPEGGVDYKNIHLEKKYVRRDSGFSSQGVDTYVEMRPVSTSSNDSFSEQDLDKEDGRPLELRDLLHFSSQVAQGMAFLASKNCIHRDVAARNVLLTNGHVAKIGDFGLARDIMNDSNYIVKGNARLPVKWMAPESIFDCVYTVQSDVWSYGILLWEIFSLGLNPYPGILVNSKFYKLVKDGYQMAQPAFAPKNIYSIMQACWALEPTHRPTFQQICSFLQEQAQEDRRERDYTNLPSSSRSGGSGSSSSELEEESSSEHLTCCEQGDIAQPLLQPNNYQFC
Procedure: AlphaScreen assays were done using compounds dissolved in DMSO to a concentration of 20 mM. The compounds were diluted accordingly to the desired final concentrations in each sample well, using 1:3 serial dilution for a total of 8 concentration points. Plates were prepared such that each kinase reaction is 20 μl in 1× kinase buffer, 5% DMSO and 10 μM ATP. After incubation of the kinase reaction for 1 hour at room temperature, 5 μl of donor beads in stop buffer (50 mM EDTA in 1× kinase buffer) was added, the sample was mixed and incubated for 20 minutes at room temperature before adding 5 μl of acceptor beads in stop buffer. The samples were incubated for 60 minutes at room temperature and the signal per well was read on AlphaQuest reader.

Jnk1 = biological target: T3, Jnk1 (Homo sapiens, UniProt P45983); assay: AlphaScreen kinase assay, Jnk1; conditions: read-out: IC50, activity toward kinase Jnk1
T3 construct: purchased Upstate Biotechnology
T3 sequence (P45983 whole entry): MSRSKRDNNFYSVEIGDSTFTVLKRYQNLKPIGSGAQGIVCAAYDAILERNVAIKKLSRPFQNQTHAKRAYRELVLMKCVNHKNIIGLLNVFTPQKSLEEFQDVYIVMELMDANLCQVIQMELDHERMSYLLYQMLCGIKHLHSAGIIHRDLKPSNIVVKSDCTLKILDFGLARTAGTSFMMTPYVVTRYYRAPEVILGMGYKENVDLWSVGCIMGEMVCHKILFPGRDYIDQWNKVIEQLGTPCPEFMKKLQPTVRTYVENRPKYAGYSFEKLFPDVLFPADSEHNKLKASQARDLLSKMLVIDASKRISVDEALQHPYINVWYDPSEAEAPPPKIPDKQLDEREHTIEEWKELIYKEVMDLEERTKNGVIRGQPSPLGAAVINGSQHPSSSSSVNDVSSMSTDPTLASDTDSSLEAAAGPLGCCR

Jnk2 = biological target: T4, Jnk2 (Homo sapiens, UniProt P45984); assay: AlphaScreen kinase assay, Jnk2; conditions: read-out: IC50, activity toward kinase Jnk2
T4 construct: purchased Roche Protein Expression Group (Indianapolis, IN)
T4 sequence (P45984 whole entry): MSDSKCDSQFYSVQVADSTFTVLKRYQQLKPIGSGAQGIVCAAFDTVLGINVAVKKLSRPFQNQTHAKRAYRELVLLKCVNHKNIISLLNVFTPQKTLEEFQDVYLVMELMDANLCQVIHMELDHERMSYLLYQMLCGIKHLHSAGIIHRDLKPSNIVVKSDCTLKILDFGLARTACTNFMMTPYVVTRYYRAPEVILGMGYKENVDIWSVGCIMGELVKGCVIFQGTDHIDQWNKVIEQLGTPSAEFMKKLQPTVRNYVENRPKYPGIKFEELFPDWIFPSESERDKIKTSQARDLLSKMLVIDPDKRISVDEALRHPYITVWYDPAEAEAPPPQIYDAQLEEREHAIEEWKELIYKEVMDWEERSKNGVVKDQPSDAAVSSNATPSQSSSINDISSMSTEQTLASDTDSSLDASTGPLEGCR
From the text: AlphaScreen assay was used to screen additional kinases. The assay is similarly dependent on the phosphorylation of a peptide substrate. In this assay, an antibody that recognizes phosphorylated substrate is bound to an acceptor bead. The peptide substrate is attached to biotin, which binds to a donor head that contains streptavidin. Thus phosphorylated substrate is bound by antibody and streptavidin, bringing the donor and acceptor heads into close proximity when kinase is not inhibited. The donor produces singlet oxygen which results in emission from the acceptor when they are in close proximity. Conversely, when kinase is inhibited, the donor and acceptor beads are not associated and the emission from the acceptor is reduced.
AlphaScreen assays were done using compounds dissolved in DMSO to a concentration of 20 mM. The compounds were diluted accordingly to the desired final concentrations in each sample well, using 1:3 serial dilution for a total of 8 concentration points.

Jnk3 = biological target: T5, Jnk3 (Homo sapiens, UniProt P53779); assay: AlphaScreen kinase assay, Jnk3; conditions: read-out: IC50, activity toward kinase Jnk3
T5 construct: purchased Upstate Biotechnology
T5 sequence (P53779 whole entry): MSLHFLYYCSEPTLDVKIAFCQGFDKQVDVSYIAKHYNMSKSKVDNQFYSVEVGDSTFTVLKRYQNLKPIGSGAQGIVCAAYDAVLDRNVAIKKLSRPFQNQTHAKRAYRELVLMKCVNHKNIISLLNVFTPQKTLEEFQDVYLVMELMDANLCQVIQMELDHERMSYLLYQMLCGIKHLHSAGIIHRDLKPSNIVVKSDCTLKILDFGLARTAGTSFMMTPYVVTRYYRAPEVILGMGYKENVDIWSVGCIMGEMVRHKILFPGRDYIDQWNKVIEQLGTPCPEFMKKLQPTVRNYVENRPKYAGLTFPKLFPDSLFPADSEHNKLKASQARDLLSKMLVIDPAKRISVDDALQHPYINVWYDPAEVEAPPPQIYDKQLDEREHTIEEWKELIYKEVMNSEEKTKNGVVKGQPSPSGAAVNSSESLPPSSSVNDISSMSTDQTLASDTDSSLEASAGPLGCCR

B-Raf = biological target: T6, B-Raf (Homo sapiens, UniProt P15056); assay: AlphaScreen kinase assay, B-Raf; conditions: read-out: IC50, activity toward kinase B-Raf
T6 construct: purchased Upstate Biotechnology
T6 sequence (P15056 whole entry): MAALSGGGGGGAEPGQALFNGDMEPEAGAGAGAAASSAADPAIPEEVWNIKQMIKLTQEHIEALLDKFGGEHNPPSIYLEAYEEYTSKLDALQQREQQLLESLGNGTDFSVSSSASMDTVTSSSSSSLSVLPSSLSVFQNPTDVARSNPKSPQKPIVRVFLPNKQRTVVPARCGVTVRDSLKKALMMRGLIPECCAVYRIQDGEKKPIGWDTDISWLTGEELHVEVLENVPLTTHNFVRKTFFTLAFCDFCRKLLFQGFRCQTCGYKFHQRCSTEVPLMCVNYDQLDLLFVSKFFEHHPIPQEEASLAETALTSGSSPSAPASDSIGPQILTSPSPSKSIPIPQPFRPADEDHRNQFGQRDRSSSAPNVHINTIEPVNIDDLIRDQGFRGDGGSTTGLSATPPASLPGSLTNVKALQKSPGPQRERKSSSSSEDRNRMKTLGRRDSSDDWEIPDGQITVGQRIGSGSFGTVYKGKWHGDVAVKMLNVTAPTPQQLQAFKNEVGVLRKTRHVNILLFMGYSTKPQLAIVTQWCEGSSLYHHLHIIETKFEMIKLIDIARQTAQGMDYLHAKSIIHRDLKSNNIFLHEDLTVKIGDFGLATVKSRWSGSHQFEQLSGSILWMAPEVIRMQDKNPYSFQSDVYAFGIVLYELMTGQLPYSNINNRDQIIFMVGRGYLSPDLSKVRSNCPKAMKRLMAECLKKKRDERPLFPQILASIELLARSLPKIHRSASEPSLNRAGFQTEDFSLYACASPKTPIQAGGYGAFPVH

c-Raf-1 = biological target: T7, c-Raf-1 (Homo sapiens, UniProt P04049); assay: AlphaScreen kinase assay, c-Raf-1; conditions: read-out: IC50, activity toward kinase c-Raf-1
T7 construct: purchased Upstate Biotechnology
T7 sequence (P04049 whole entry): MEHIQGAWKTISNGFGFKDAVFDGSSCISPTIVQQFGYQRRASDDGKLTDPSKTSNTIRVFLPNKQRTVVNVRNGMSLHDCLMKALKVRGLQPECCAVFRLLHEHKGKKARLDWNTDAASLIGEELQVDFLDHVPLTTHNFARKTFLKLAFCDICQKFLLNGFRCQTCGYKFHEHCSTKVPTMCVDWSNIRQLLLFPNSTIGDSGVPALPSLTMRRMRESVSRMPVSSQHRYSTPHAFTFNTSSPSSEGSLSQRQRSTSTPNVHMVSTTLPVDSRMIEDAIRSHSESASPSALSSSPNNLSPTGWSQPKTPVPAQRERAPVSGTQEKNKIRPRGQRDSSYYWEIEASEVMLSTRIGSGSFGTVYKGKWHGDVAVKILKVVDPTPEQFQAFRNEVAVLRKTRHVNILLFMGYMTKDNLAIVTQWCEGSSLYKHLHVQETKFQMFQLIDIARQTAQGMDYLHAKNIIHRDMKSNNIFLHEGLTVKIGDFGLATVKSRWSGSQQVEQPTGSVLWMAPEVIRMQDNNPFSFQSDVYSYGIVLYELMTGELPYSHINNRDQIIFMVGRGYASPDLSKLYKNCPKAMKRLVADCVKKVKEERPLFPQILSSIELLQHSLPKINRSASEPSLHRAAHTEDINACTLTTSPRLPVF

FGFR1 = biological target: T8, FGFR1 (Homo sapiens, UniProt P11362, C488A/C584S); assay: AlphaScreen kinase assay, FGFR1; conditions: read-out: IC50, activity toward kinase FGFR
T8 construct: P1351.pET N6 BI-PTP FGFR A458-E765-X C488A, C584S; made in house; host or cells: E. coli (PTP1B co-expressed)
T8 sequence (P11362 458-765 C488A/C584S): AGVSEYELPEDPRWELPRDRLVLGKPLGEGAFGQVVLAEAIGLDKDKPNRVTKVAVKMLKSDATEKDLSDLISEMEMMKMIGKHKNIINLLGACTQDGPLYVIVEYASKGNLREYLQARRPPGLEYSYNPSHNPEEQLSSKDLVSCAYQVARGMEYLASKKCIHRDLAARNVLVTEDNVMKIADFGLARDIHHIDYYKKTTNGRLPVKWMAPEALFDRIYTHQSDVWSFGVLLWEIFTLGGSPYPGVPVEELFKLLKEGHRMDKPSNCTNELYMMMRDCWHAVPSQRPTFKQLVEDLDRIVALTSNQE

Kit = biological target: T9, Kit (Homo sapiens, UniProt P10721); assay: AlphaScreen kinase assay, Kit; conditions: read-out: IC50, activity toward kinase Kit
T9 construct: P1332.N6 BI PTP KIT M552-K948-X COD; His6 (N); made in house; host or cells: E. coli (PTP1B co-expressed)
T9 sequence (P10721 with tags, fused parts or gaps): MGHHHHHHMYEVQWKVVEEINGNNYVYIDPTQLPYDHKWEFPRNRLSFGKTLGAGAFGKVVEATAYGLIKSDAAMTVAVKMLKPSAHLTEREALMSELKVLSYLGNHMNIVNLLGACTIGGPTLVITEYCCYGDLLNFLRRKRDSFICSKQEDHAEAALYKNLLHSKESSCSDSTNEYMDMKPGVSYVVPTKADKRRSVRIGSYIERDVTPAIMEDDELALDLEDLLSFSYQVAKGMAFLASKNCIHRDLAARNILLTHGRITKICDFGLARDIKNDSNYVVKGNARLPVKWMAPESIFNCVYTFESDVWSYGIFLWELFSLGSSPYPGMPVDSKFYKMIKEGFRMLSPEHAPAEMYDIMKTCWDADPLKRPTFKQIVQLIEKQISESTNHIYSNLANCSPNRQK

Ret = biological target: T10, Ret (Homo sapiens, UniProt P07949); assay: AlphaScreen kinase assay, Ret; conditions: read-out: IC50, activity toward kinase Ret
T10 construct: P1378.pET-SF BI-PTP RET H661-R1012 HIS; made in house
T10 sequence (P07949 with tags, fused parts or gaps): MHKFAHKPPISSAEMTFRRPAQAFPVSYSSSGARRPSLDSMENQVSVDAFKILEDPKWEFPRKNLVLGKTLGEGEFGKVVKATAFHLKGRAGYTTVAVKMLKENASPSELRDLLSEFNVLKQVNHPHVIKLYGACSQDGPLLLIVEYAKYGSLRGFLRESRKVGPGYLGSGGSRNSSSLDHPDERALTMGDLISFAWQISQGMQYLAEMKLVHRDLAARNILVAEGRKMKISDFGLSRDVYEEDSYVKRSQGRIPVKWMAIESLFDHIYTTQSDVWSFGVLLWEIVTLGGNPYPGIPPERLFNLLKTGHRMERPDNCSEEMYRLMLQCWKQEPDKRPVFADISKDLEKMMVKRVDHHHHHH

Flt1 = biological target: T11, Flt1 (Homo sapiens, UniProt P17948); assay: AlphaScreen kinase assay, Flt1; conditions: read-out: IC50, activity toward kinase Flt1
T11 construct: P1826.pETN6 BI-PTP FLT1 M799-D1165-X WT; His6 (N); made in house; host or cells: E. coli (PTP1B co-expressed)
T11 sequence (P17948 with tags, fused parts or gaps): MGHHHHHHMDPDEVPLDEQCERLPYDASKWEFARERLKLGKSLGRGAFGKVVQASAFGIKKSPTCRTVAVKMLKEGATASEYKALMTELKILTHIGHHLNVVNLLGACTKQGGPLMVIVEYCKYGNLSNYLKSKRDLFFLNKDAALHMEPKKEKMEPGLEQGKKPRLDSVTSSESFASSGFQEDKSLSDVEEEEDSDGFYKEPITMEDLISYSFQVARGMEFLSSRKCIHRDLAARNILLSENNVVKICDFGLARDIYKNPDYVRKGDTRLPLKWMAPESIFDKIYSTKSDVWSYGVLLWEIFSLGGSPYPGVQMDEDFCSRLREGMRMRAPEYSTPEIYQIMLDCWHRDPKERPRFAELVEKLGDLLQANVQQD

Measured: IC50

O=C(c1c[nH]c2ncc(-c3ccccc3)cc12)c1cccc2c1ccn2C(=O)NCc1ccccc1 [Compound P-1611, 4-(5-Phenyl-1H-pyrrolo[2,3-b]pyridine-3-carbonyl)-indole-1-carboxylic acid benzylamide]
≤ 10 µM: B-Raf V600E | Fms | Jnk1 | Jnk2 | Jnk3

O=C(Nc1cccc(C(=O)c2c[nH]c3ncccc23)c1)Nc1ccon1 [Compound P-1764, 1-Isoxazol-3-yl-3-[3-(1H-pyrrolo[2,3-b]pyridine-3-carbonyl)-phenyl]-urea]
≤ 10 µM: B-Raf | B-Raf V600E | Fms | Jnk1 | Jnk2 | Jnk3

CCCN(CCC)C(=O)n1ccc2c(C(=O)c3c[nH]c4ncc(-c5cccnc5)cc34)cccc21 [Compound P-1722, 4-(5-Pyridin-3-yl-1H-pyrrolo[2,3-b]pyridine-3-carbonyl)-indole-1-carboxylic acid dipropylamide]
≤ 10 µM: B-Raf | B-Raf V600E | Fms | Jnk1 | Jnk2 | Jnk3

CCCS(=O)(=O)Nc1ccc(F)c(C(=O)c2c[nH]c3ncc(-c4ccc(C(=O)N(C)C)c(C)c4)cc23)c1F [Compound P-2007]
≤ 10 µM: B-Raf | B-Raf V600E | Fms | Jnk1 | Jnk2 | Jnk3

O=C(Nc1cccc(C(=O)c2c[nH]c3ncc(-c4cccnc4)cc23)c1)Nc1ccc(F)c(F)c1 [Compound P-1724, 1-(3,4-Difluoro-phenyl)-3-[3-(5-pyridin-3-yl-1H-pyrrolo[2,3-b]pyridine-3-carbonyl)-phenyl]-urea]
≤ 10 µM: B-Raf | B-Raf V600E | Fms | Jnk1 | Jnk2 | Jnk3

CCCCCNC(=O)n1ccc2c(C(=O)c3c[nH]c4ncc(-c5cccnc5)cc34)cccc21 [Compound P-1702, 4-(5-Pyridin-3-yl-1H-pyrrolo[2,3-b]pyridine-3-carbonyl)-indole-1-carboxylic acid pentylamide]
≤ 10 µM: B-Raf | B-Raf V600E | Fms | Jnk1 | Jnk2 | Jnk3

Cn1cccc1-c1nc(-c2ccnc3[nH]ccc23)no1 [Compound P-0285]
≤ 10 µM: Jnk1 | Jnk2 | Jnk3

CCCCNC(=O)n1ccc2c(C(=O)c3c[nH]c4ncc(-c5ccc(OC)nc5)cc34)cccc21 [Compound P-1827, 4-[5-(6-Methoxy-pyridin-3-yl)-1H-pyrrolo[2,3-b]pyridine-3-carbonyl]-indole-1-carboxylic acid butylamide]
≤ 10 µM: B-Raf | Fms | Jnk1 | Jnk2 | Jnk3

Cc1c(NS(C)(=O)=O)cccc1C(=O)c1c[nH]c2ncc(-c3cccnc3)cc12 [Compound P-0121, N-[2-Methyl-3-(5-pyridin-3-yl-1H-pyrrolo[2,3-b]pyridine-3-carbonyl)-phenyl]-methanesulfonamide]
not listed: Jnk3 | B-Raf | Flt1
≤ 10 µM: all other assays above

CCCCNC(=O)n1ccc2c(C(=O)c3c[nH]c4ncc(-c5ccc(Cl)cc5)cc34)cccc21 [Compound P-1602, 4-[5-(4-Chloro-phenyl)-1H-pyrrolo[2,3-b]pyridine-3-carbonyl]-indole-1-carboxylic acid butylamide]
≤ 10 µM: B-Raf | B-Raf V600E | Flt1 | Fms | Jnk1 | Jnk2

CCCCNC(=O)Nc1ccc(F)c(C(=O)c2c[nH]c3ncc(-c4cccc(S(C)(=O)=O)c4)cc23)c1 [Compound P-1627, 1-Butyl-3-{4-fluoro-3-[5-(3-methanesulfonyl-phenyl)-1H-pyrrolo[2,3-b]pyridine-3-carbonyl]-phenyl}-urea]
≤ 10 µM: B-Raf | B-Raf V600E | Fms | Jnk1 | Jnk2

COc1ccc(NC(=O)Nc2cccc(C(=O)c3c[nH]c4ncc(-c5cccnc5)cc34)c2)cn1 [Compound P-1779, 1-(6-Methoxy-pyridin-3-yl)-3-[3-(5-pyridin-3-yl-1H-pyrrolo[2,3-b]pyridine-3-carbonyl)-phenyl]-urea]
≤ 10 µM: B-Raf | B-Raf V600E | Fms | Jnk1 | Jnk2

O=C(Nc1cccc(C(=O)c2c[nH]c3ncc(-c4cccnc4)cc23)c1)Nc1cccc(C(F)(F)F)c1 [Compound P-1755, 1-[3-(5-Pyridin-3-yl-1H-pyrrolo[2,3-b]pyridine-3-carbonyl)-phenyl]-3-(3-trifluoromethyl-phenyl)-urea]
≤ 10 µM: B-Raf | B-Raf V600E | Fms | Jnk1 | Jnk2

CCCCNC(=O)n1ccc2c(Cc3c[nH]c4ncc(-c5cccnc5)cc34)cccc21 [Compound P-1656, 4-(5-pyridin-3-yl-1H-pyrrolo[2,3-b]pyridin-3-ylmethyl)-indole-1-carboxylic acid butylamide]
≤ 10 µM: B-Raf | B-Raf V600E | Fms | Jnk1 | Jnk2

O=C(Nc1ccncc1)Nc1cccc(C(=O)c2c[nH]c3ncc(-c4cccnc4)cc23)c1 [Compound P-1777, 1-Pyridin-4-yl-3-[3-(5-pyridin-3-yl-1H-pyrrolo[2,3-b]pyridine-3-carbonyl)-phenyl]-urea]
≤ 10 µM: B-Raf | B-Raf V600E | Jnk1 | Jnk2 | Jnk3
